Data on two compounds can be found in US8952204B2, “Sulfonium salt, method for producing the same, and photoacid generator” (DSP Gokyo Food & Chemical Co., Ltd., priority 2012, dated 2015).

Data set [1] in a line: Measurement of ultraviolet-visible absorption spectrum (molecular extinction coefficient at 365 nm). It counts as physicochemical. Particulars: 1×10^−4 mol/L acetonitrile solution; 50 to 2000 evaluated as desirable. The procedure: (Measurement of Ultraviolet-Visible Absorption Spectrum)
A 1×10^−4 mol/L acetonitrile solution of each test compound was prepared, and the molecular extinction coefficient at 365 nm in the ultraviolet-visible absorption spectrum was measured using an ultraviolet-visible spectrophotometer (UV-2400PC, manufactured by SHIMADZU CORPORATION). […] Considering that light should be transmitted to a deep portion in a thick film, compounds with a molecular extinction coefficient at 365 nm (i-line) of 50 to 2000 were evaluated as a compound having desirable properties.

Data set [2] in a line: Solubility in PGMEA (amount of PGMEA necessary for dissolving 100 mg test compound). It is filed as physicochemical. Particulars: 20±5° C., after 30 minutes, 16 mL or less evaluated as desirable. As for the experimental part:
To the sulfonium salt compound to be measured (test compound; 100 mg each) was added PGMEA, and a strong shaking for 30 seconds was repeated at 20±5° C. every 5 minutes. In this way, the amount of PGMEA necessary for dissolving the test compound after 30 minutes was measured. Here, “dissolving” means to reach the state where no insoluble matter can be observed by visual inspection, specifically, means that the resultant solution is clear, or a mixture in an arbitrary ratio becomes transparent.
In Table 1 below, the compounds that require PGMEA in an amount of 16 mL or less were evaluated as having desirable properties as a current target compound.

`CC1(C)[C@@H]2CC[C@@]1(CS(=O)(=O)[O-])C(=O)C2.c1ccc([S+](c2ccccc2)c2ccccc2)cc1` [Comparative Example Compound 1, triphenylsulfonium (1S,4R)-7,7-dimethyl-2-oxobicyclo[2.2.1]heptane-1-yl methanesulfonate]: the “Molecular Extinction Coefficient (365 nm)” value in data set [1] amounted to 0. Further, in data set [2], the “PGMEA (mL): amount of PGMEA necessary for dissolving test compound” value is reported as more than 160 mL.

As for `CC1(C)[C@@H]2CC[C@@]1(CS(=O)(=O)[O-])C(=O)C2.CCCCOc1ccc2ccc(OCCCC)c([S+](CCCC)CCCC)c2c1` [Example Compound 1, 1-(2,7-di-n-butoxynaphthyl)di-n-butyl sulfonium (1S,4R)-7,7-dimethyl-2-oxobicyclo[2.2.1]heptane-1-yl methanesulfonate], the “Molecular Extinction Coefficient (365 nm)” value in data set [1] is 640. In addition, in data set [2], the “PGMEA (mL): amount of PGMEA necessary for dissolving test compound” value is listed as 11 mL.
